Results as given in ChEMBL document CHEMBL1140246, “Synthesis of cationic beta-vinyl substituted meso-tetraphenylporphyrins and their in vitro activity against herpes simplex virus type 1” (2005).

What was measured:
[1] = tested on: Vero; experiment: Photocytotoxicity was evaluated on the cell growth inhibition using Vero cells were at the concentration of 1 uM after 48 hr of incubation; type: functional, Chlorocebus sabaeus
[2] = tested on: Vero; experiment: Photocytotoxicity was evaluated on the cell growth inhibition using Vero cells were at the concentration of 5 uM after 48 hr of incubation; type: functional, Chlorocebus sabaeus
[3] = tested on: Vero; experiment: Photocytotoxicity was evaluated on the cell growth inhibition using Vero cells were at the concentration of 10 uM after 48 h of incubation; type: functional, Chlorocebus sabaeus
[4] = tested on: Vero; experiment: Photocytotoxicity was evaluated on the cell growth inhibition using Vero cells were at the concentration of 20 uM after 48 hr of incubation; type: functional, Chlorocebus sabaeus
[5] = tested on: Vero; experiment: Photocytotoxicity was evaluated on the cell growth inhibition using Vero cells were at the concentration of 0.1 uM after 48 hr of incubation; type: functional, Chlorocebus sabaeus
[6] = tested on: Vero; experiment: Photocytotoxicity was evaluated on the cell growth inhibition using Vero cells were at the concentration of 0.5 uM after 48 hr of incubation; type: functional, Chlorocebus sabaeus
[7] = tested on: Vero; experiment: Photocytotoxicity was evaluated on the cell growth inhibition using Vero cells were at the concentration of 0.25 uM after 48 hr of incubation; type: functional, Chlorocebus sabaeus
[8] = tested on: Human alphaherpesvirus 1; experiment: Photovirucidal effect against herpes simplex virus type 1 after 5 mins of irradiation time with white light of 50 mW/cm2; type: functional
[9] = tested on: Human alphaherpesvirus 1; experiment: Photovirucidal effect against herpes simplex virus type 1 with no irradiation time with white light of 50 mW/cm2; type: functional
[10] = tested on: Human alphaherpesvirus 1; experiment: Photovirucidal effect against herpes simplex virus type 1 after 15 mins of irradiation time with white light of 50 mW/cm2; type: functional
[11] = tested on: Human alphaherpesvirus 1; experiment: Photostability against herpes simplex virus type 1 after 1 min of irradiation with total light dose of 3 mW/cm**2; type: functional
[12] = tested on: Human alphaherpesvirus 1; experiment: Photostability against herpes simplex virus type 1 after 3 min of irradiation with total light dose of 9 mW/cm**2; type: functional
[13] = tested on: Human alphaherpesvirus 1; experiment: Photostability against herpes simplex virus type 1 after 5 min of irradiation with total light dose of 15 mW/cm**2; type: functional
[14] = tested on: Human alphaherpesvirus 1; experiment: Photostability against herpes simplex virus type 1 after 10 min of irradiation with total light dose of 30 mW/cm**2; type: functional
[15] = tested on: Human alphaherpesvirus 1; experiment: Photostability against herpes simplex virus type 1 after 15 min of irradiation with total light dose of 45 mW/cm**2; type: functional
[16] = tested on: Vero; experiment: Concentration required for cellular cytotoxicity against Vero cells
[17] = tested on: Vero; experiment: Photocytotoxicity was evaluated on the cell growth inhibition using Vero cells were at the concentration of 10 uM after 48 hr of incubation; type: functional, Chlorocebus sabaeus
[18] = tested on: Vero; experiment: Photocytotoxicity was evaluated on the cell growth inhibition using Vero cells were at the concentration of 20 uM after 48 h of incubation; type: functional, Chlorocebus sabaeus

Row | SMILES | Viability [1] [%] | Viability [2] [%] | Viability [3] [%] | Viability [4] [%] | Viability [5] [%] | Viability [6] [%] | Viability [7] [%] | Virus inactivation [8] [%] | Virus inactivation [9] [%] | Virus inactivation [10] [%] | Intensity [11] [%] | Intensity [12] [%] | Intensity [13] [%] | Intensity [14] [%] | Intensity [15] [%] | CC50 [16] [µM] | Viability [17] [%] | Viability [18] [%]
1 | C[n+]1ccccc1/C=C/c1cc2[nH]c1c(-c1ccccc1)c1nc(c(-c3ccccc3)c3nc(c(-c4ccccc4)c4ccc([nH]4)c2-c2ccccc2)C=C3)C=C1.[Cl-] | 95.3 | 84.6 | 69 | 18.8 | 104.8 | 101 | 103.3 | 96.98 | 27.8 | 99.61 | 100 | 94 | 93 | 88 | 83 | 13.7 | – | –
2 | C[n+]1ccc(/C=C/c2cc3[nH]c2c(-c2ccccc2)c2nc(c(-c4ccccc4)c4nc(c(-c5ccccc5)c5ccc([nH]5)c3-c3ccccc3)C=C4)C=C2)cc1.[Cl-] | 97.3 | 90.8 | – | – | 104.5 | 98.3 | 99.9 | 0 | – | 48.99 | 100 | 99 | 96 | 93 | 91 | 13.5 | 62 | 28
